Experiments:
[1] = system: L. monocytogenes ATCC 19115 (strain B); type: cell-based, Listeria monocytogenes; details: up to 15 passages
Procedure: (§1) The bacteria were grown in MH broth at 37° C. for these experiments. […] The resulting cultures were diluted 1:1000 and grown until the culture reached ˜300,000 cfu/mL. That culture was then further diluted 1:1000 and used to determine the next round of MIC values.

MRSA (strain C) = type: cell-based, Staphylococcus aureus; details: up to 15 passages
Procedure: as §1

VRE (strain D) = type: cell-based, enterococcus; details: up to 15 passages
Procedure: as §1

[2] = system: P. aeruginosa ATCC 27853 (strain I); type: cell-based; details: up to 15 passages
Procedure: as §1

C. albicans ATCC 10231 [3] = type: cell-based, Candida albicans; details: repeated treatments with sub-MIC drug concentrations
C. albicans ATCC 10231 [4] = test: Intracellular ROS production, DCFH-DA fluorescence assay; type: cell-based, Candida albicans; details: at 1× and 2× MIC values, 1 h at 35° C.
Excerpt: We used the 2′,7′-dichlorodihydrofluorescein diacetate (DCFH-DA) dye as a probe to measure the production of ROS in yeast cells upon treatment with our compounds. DCFH-DA can easily cross the cell membranes and be hydrolyzed by cellular esterases to the non-fluorescent 2′,7′-dichlorodihydrofluorescein (DCFH), which can further be oxidized to the highly fluorescent 2′,7′-dichlorofluorescein (DCF) by the intracellular ROS. Five mL of RPMI 1640 medium were inoculated using a single colony of C. albicans ATCC 10231 (strain A) in a Falcon tube and grown overnight at 35° C. at 200 rpm. The overnight culture was diluted by adding 200 μL of yeast cells to 800 μL of the same medium. […] H2O2 at 1 mM was also used as a positive control. Cells were centrifuged and washed twice with PBS buffer (pH 7.2). Cells were resuspended in the same buffer and incubated with DCFH-DA (20 μg/mL) for 30 min in the dark. Afterwards, cells were centrifuged and washed with PBS buffer to remove excess DCFH-DA. Glass slides with 10-15 μL of each mixture were prepared and observed in bright field and fluorescence modes (FITC filter set, excitation and emission wavelengths of 488 and 512 nm, respectively) using a Zeiss Axovert 200M fluorescence microscope (FIG. 3).

hERG channel = hERG channel (Homo sapiens, UniProt Q12809); test: in vitro; details: pH 7.4
hERG channel, sequence (Q12809 whole entry): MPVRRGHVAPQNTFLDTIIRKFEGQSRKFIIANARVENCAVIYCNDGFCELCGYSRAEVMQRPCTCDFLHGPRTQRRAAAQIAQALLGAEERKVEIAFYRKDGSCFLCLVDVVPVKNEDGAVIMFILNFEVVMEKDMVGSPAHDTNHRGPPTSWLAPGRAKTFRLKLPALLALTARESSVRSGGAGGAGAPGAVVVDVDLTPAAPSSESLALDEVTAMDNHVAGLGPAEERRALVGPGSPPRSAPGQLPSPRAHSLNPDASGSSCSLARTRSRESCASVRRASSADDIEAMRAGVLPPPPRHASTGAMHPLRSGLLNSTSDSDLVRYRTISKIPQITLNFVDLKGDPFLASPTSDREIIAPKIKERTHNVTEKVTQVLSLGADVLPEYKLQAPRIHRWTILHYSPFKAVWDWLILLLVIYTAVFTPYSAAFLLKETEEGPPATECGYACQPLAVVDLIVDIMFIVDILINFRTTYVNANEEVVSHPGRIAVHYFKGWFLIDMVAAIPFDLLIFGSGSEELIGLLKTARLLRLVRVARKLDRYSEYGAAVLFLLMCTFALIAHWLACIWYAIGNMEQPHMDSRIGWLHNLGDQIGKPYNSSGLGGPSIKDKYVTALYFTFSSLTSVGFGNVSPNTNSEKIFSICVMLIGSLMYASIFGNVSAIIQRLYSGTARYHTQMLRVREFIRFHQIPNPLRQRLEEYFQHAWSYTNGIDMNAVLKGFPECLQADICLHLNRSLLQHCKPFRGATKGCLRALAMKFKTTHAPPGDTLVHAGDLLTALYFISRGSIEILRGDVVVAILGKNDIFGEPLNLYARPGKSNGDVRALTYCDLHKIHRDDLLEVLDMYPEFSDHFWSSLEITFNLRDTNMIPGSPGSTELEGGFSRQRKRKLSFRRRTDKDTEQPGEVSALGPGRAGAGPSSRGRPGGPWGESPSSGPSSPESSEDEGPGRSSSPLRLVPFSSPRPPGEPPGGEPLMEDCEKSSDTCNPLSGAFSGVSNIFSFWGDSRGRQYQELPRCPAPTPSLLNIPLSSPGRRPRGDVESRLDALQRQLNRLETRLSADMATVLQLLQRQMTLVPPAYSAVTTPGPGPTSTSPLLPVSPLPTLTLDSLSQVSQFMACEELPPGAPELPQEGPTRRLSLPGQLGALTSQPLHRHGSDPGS
Procedure: Assays were conducted in duplicate, and three independent assays were performed for each compound that was evaluated. Cell membrane suspension (5 μg) was added to duplicate tubes containing assay buffer (50 mM Tris, 10 mM KCl, and 1 mM MgCl2, pH 7.4), 25 μL of a single concentration of analogue (a concentration range of 10 nM-100 μM was employed for each experiment), and 25 μL of [^3H]dofetilide (5 nM, final concentration) for an assay volume of 250 μL. Nonspecific binding was assessed in the presence of 1 mM amitriptyline. Binding occurred for 60 min at 25° C. and was terminated by rapid filtration through Whatman GF/B filters, which were pre-soaked in 0.5% PEI for 2 h. Filters were washed three times with ˜1 mL of ice-cold assay buffer. Radioactivity retained by the filters was determined by liquid scintillation counting by using a Tri-Carb 2100TR liquid scintillation analyzer (PerkinElmer Life and Analytical Sciences, Boston, Mass.).

[5] = system: C. albicans strains (panel of seven); test: Antifungal MIC, summary over the panel; type: cell-based, Candida albicans; details: for antifungal activity in words: against all fungal strains tested
Summary of the method: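 Modified CLSI M27-A3 microdilution. Visual endpoint: complete inhibition against growth control.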

With Cl.N=C(N)N/N=C/c1ccc(-c2ccc(C=NNc3ccccc3Cl)cc2)cc1 (mixture of isomers) [Compound 7Aa, E)-2-((4′-((E and Z)-(2-(2-Chlorophenyl)hydrazono)methyl)-[1,1′-biphenyl]-4-yl)methylene)hydrazine-1-carboximidamide monohydrochloride] the “development of resistance (passages after which resistance developed)” value (“development of resistance” for short) [1] was “did not develop resistance”, the “development of resistance” value (MRSA (strain C)) was “twelve” and the “development of resistance” value (VRE (strain D)) was “did not develop resistance”. The “development of resistance” value [2] was “twelve”, the “development of drug resistance” value (C. albicans ATCC 10231 [3]) was “unable to develop drug resistance” and the “intracellular ROS production” value (C. albicans ATCC 10231 [4]) was “significantly increased intracellular ROS production”. For the same compound, the IC50 at 60 min (hERG channel) was 1.14 ± 0.267 µM and the “antifungal activity in words” value [5] was “excellent antifungal activities”.

With Cl.Cl.N=C(N)N/N=C/c1ccc(-c2cccc(/C=N/NC(=N)N)c2)cc1 [Compound 3B, (2E,2′E)-2,2′-([1,1′-Biphenyl]-3,4′-diylbis(methanylylidene))bis(hydrazine-1-carboximidamide) dihydrochloride] the “antifungal activity in words” value [5] was “excellent antifungal activities”.

In the case of Cl.N=C(N)N/N=C/c1ccc(-c2ccc(/C=N/Nc3ccc(Cl)cc3)cc2)cc1 [Compound 7Ad, (E)-2-((4′-((E)-(2-(4-Chlorophenyl)hydrazono)methyl)-[1,1′-biphenyl]-4-yl)methylene)hydrazine-1-carboximidamide monohydrochloride], the MIC ([5]; Candida albicans, all, most or majority of the fungal strains, read-out: MIC, span over C. albicans strains) is reported as 7.8 to 15.6 µg/mL and the melting point is reported as over 380 °C.

For Cl.N=C(N)N/N=C/c1ccc(-c2ccc(/C=N/Nc3ccc(F)cc3F)cc2)cc1 [Compound 7Af, (E)-2-((4′-((E)-(2-(2,4-Difluorophenyl)hydrazono)methyl)-[1,1′-biphenyl]-4-yl)methylene) hydrazine-1-carboximidamide, monohydrochloride], the “antifungal activity in words” value [5] was “excellent antifungal activities” and the melting point was over 380 °C.
